Our source for the Papp values is publication PMC11876671, “Investigating blood–brain barrier penetration and neurotoxicity of natural products for central nervous system drug development” (Scientific Reports, 2025).

Structures can show the parent of a compound that is named as a salt.

One series in a line: in vitro. The settings on record: PAMPA, PAMPA-BBB Pe(10^-6 cm/sec). For orientation: The PAMPA barrier holds no transporters, so it reflects passive diffusion.
By Papp is commonly meant a coefficient for how fast a substance crosses the barrier. Read a high Papp as ready permeation. For `C[C@H]1C[C@H]2[C@@H]3CCC4=CC(=O)C=C[C@]4(C)[C@H]3C(=O)C[C@]2(C)[C@@]1(O)C(=O)CO` [MEPREDNISONE], the Papp was determined as 3.7 ×10⁻⁶ cm/s.

With `C[C@]12C=CC(=O)C=C1[C@@H](F)C[C@@H]1[C@@H]2[C@@H](O)C[C@@]2(C)[C@H]1CC[C@]2(O)C(=O)CO` [FLUPREDNISOLONE], the Papp was found to be 1.9 ×10⁻⁶ cm/s.

Regarding `C/C(=C\C(=O)OCCCCCCCCC(=O)O)C[C@@H]1OC[C@H](C[C@@H]2O[C@H]2[C@@H](C)[C@H](C)O)[C@@H](O)[C@H]1O` [MUPIROCIN], the Papp is less than 1 ×10⁻⁶ cm/s.

For the compound `Cn1cnc2c1c(=O)[nH]c(=O)n2C` [THEOBROMINE], the Papp was less than 1 ×10⁻⁶ cm/s.

The compound `CN1c2c(nc(N)[nH]c2=O)NC[C@@H]1CNc1ccc(C(=O)N[C@@H](CCC(=O)O)C(=O)O)cc1` [LEVOMEFOLATE] displayed a Papp of less than 1 ×10⁻⁶ cm/s.

The compound `CC(C)C/C=C(\C=O)c1ccccc1` [(Z)-5-METHYL-2-PHENYL-HEX-2-ENAL] yielded a Papp of less than 1 ×10⁻⁶ cm/s.

The compound `CN(C)[C@@H]1C(O)=C(C(N)=O)C(=O)[C@@]2(O)C(O)=C3C(=O)c4c(O)ccc(Cl)c4[C@@H](O)[C@H]3C[C@@H]12` [DEMECLOCYCLINE HYDROCHLORIDE] displayed a Papp of 1.5 ×10⁻⁶ cm/s.

The series is the same for the next values; noted with them: PAMPA, PAMPA-BBB Pe(10^-6 cm/sec), Table S3: compounds exhibiting low PAMPA-BBB permeability.
`O=C(O)c1cccnc1C(=O)O` [QUINOLINIC ACID] gave a Papp of less than 1 ×10⁻⁶ cm/s.

The compound `OC[C@H]1O[C@@H](Oc2cc(O)cc(/C=C/c3ccc(O)cc3)c2)[C@H](O)[C@@H](O)[C@@H]1O` [POLYDATIN] yielded a Papp of less than 1 ×10⁻⁶ cm/s.

With `Nc1nc2c(ncn2[C@@H]2O[C@H](COP(=O)(O)OP(=O)(O)O)[C@@H](O)[C@H]2O)c(=O)[nH]1` [Guanosine pyrophosphate], the Papp was less than 1 ×10⁻⁶ cm/s.

Regarding `COc1cc2c(CCNC(C)=O)c[nH]c2cc1O` [6-HYDROXYMELATONIN], the Papp was 2.8 ×10⁻⁶ cm/s.

The compound `N[C@@H](Cn1ccc(=O)[nH]c1=O)C(=O)O` [WILLARDIINE] had a Papp of less than 1 ×10⁻⁶ cm/s.

Regarding `O=c1ccn([C@@H]2O[C@H](COP(=O)(O)O)[C@@H](O)[C@H]2O)c(=O)[nH]1` [URIDINE PHOSPHATE], the Papp is less than 1 ×10⁻⁶ cm/s.

In the case of `COC1=CC(=O)C=C(OC)C1=O` [2,6-DIMETHOXY-1,4-BENZOQUINONE], the apparent permeability coefficient (Papp) was less than 1 ×10⁻⁶ cm/s.

The compound `Oc1ccc(-c2[o+]c3cc(O)cc(O)c3cc2O)cc1` [PELARGONIDIN] gave an apparent permeability (Papp) of less than 1 ×10⁻⁶ cm/s.

The compound `O=C(O[C@@H]1Cc2c(O)cc(O)cc2O[C@H]1c1cc(O)c(O)c(O)c1)c1cc(O)c(O)c(O)c1` [GALLOCATECHIN GALLATE, (-)-] gave a Papp of less than 1 ×10⁻⁶ cm/s.

As for `O=C(/C=C/c1ccc(O)c(O)c1)O[C@@H]1C[C@](O)(C(=O)O)C[C@@H](O)[C@H]1O` [CHLOROGENIC ACID], the Papp was less than 1 ×10⁻⁶ cm/s.

Compound `CN1C(=O)CC[C@H]1c1cccnc1` [COTININE] gave an apparent permeability (Papp) of less than 1 ×10⁻⁶ cm/s.

As to `CCCCC[C@H](O)/C=C/C1=C(CCCCCCC(=O)O)C(=O)CC1` [PROSTAGLANDIN B1], the Papp was less than 1 ×10⁻⁶ cm/s.

In the case of `O=C(O)c1cccc(O)c1O` [PYR[…]], the apparent permeability (Papp) is less than 1 ×10⁻⁶ cm/s.

In the case of `O=C(O)Cc1ccc(O)c(O)c1` [DOPACETIC ACID], the apparent permeability (Papp) is less than 1 ×10⁻⁶ cm/s.

In the case of `O=C(/C=C/c1ccc(O)c2c1[C@H](C(=O)O)[C@@H](c1ccc(O)c(O)c1)O2)O[C@H](Cc1ccc(O)c(O)c1)C(=O)O` [LITHOSPERMIC ACID A], the apparent permeability (Papp) was less than 1 ×10⁻⁶ cm/s.

The compound `O=C1C=C2C(=CCOC2O)O1` (stereo not drawn) [PATULIN] came in with an apparent permeability coefficient (Papp) of less than 1 ×10⁻⁶ cm/s.

`N[C@@H](Cc1cc(I)c(O)c(I)c1)C(=O)O` [L-DIIODOTYROSINE] gave a Papp of less than 1 ×10⁻⁶ cm/s.

Regarding `C[C@H](O)C(=O)C1=Nc2c(nc(N)[nH]c2=O)NC1` [SEPIAPTERIN], the Papp was 1.6 ×10⁻⁶ cm/s.

The compound `CC1=C(/C=C/C(C)=C/C=C/C(C)=C/C=C/C=C(C)/C=C/C=C(\C)C=O)C(C)(C)CCC1` [APOCAROTENAL] returned an apparent permeability coefficient (Papp) of less than 1 ×10⁻⁶ cm/s.

For `CC(C=O)Cc1ccc(C(C)C)cc1` (stereo not drawn) [CYCLAMEN ALDEHYDE], the apparent permeability coefficient (Papp) is 8.2 ×10⁻⁶ cm/s.

Consider `COc1cc(C[C@@H](CO)[C@H](CO)Cc2ccc(O)c(OC)c2)ccc1O` [SECOISOLARICIRESINOL], for which the Papp was less than 1 ×10⁻⁶ cm/s.

As to `CC(=O)O[C@H]1C(=O)[C@@]2(C)[C@H]([C@H](OC(=O)c3ccccc3)[C@]3(O)C[C@H](O)C(C)=C1C3(C)C)[C@]1(OC(C)=O)CO[C@@H]1C[C@@H]2O` [BACCATIN III], the Papp was less than 1 ×10⁻⁶ cm/s.

In the case of `C[C@]12CC[C@@H]3c4ccc(O)cc4CC[C@H]3[C@@H]1C[C@@H](O)[C@@H]2O` [ESTRIOL], the Papp was less than 1 ×10⁻⁶ cm/s.

`O=C1c2c(O)cccc2[C@H]([C@@H]2O[C@H](CO)[C@@H](O)[C@H](O)[C@H]2O)c2cc(CO)cc(O)c21` [ALOIN A]: the apparent permeability coefficient (Papp) amounted to 5.4 ×10⁻⁶ cm/s.

In turn, `O=C(O)Cc1c[nH]c2ccc(O)cc12` [HYDROXYIN[…]] had a Papp of less than 1 ×10⁻⁶ cm/s.

On to `O=C(OCC1=C[C@@H](O)[C@@H]2C=CO[C@@H](O[C@@H]3O[C@H](CO)[C@@H](O)[C@H](O)[C@H]3O)[C@H]12)c1ccc(O)cc1` [AGNUSIDE], for which the Papp was less than 1 ×10⁻⁶ cm/s.

`O=C(O)/C=C/c1ccc2c(c1)OCO2` [3,4-METHYLENEDIOXYCINNAMIC ACID] had a Papp of less than 1 ×10⁻⁶ cm/s.

In the case of `CC[C@H]1O[C@]2(CC[C@@H]1C)C[C@@H]1C[C@@H](CC=C(C)C[C@@H](C)C=CC=C3CO[C@@H]4[C@H](O)C(C)=C[C@@H](C(=O)O1)[C@]34O)O2` [MILBEMYCIN A4], the Papp is 9.9 ×10⁻⁶ cm/s.

As to `CNc1ccccc1C(=O)N1CCc2c([nH]c3ccccc23)C1=O` [Rhetsinine], the Papp came out at 2.6 ×10⁻⁶ cm/s.

In turn, `CC(=O)O[C@@]12C[C@@H](C)[C@@]3(O)[C@@H](C=C(CO)C[C@]4(O)C(=O)C(C)=C[C@@H]34)[C@@H]1C2(C)C` [PROSTRATIN] registered a Papp of less than 1 ×10⁻⁶ cm/s.

Staying with this series, now noted: PAMPA, PAMPA-BBB Pe, Table S2: compounds exhibiting moderate to high PAMPA-BBB permeability.
As to `CN1CC(CO)=C[C@H]2c3cccc4[nH]cc(c34)C[C@H]21` [ELYMOCLAVINE], the Papp came out at 17 ×10⁻⁶ cm/s.

In the case of `C/C=C/c1ccc(OC)cc1` [ANETHOLE], the Papp worked out at 120 ×10⁻⁶ cm/s.

`COC(=O)c1ccc(OC)cc1` [METHYL ANISATE] gave a Papp of 103 ×10⁻⁶ cm/s.

Compound `COc1cccc(C=O)c1OC` showed a Papp of 107 ×10⁻⁶ cm/s.

Compound `O=c1c2ccccc2nc2n1CCc1c-2[nH]c2ccccc12` [RUTECARPINE] came in with a Papp of 151 ×10⁻⁶ cm/s.

For the compound `CC[C@@]1(O)C[C@H](O[C@H]2C[C@H](N(C)C)[C@H](O)[C@H](C)O2)c2c(cc3c(c2O)C(=O)c2c(O)cccc2C3=O)[C@H]1C(=O)OC` [AKLAVINE], the Papp was found to be 116 ×10⁻⁶ cm/s.

Regarding `COc1c2c(cc3c1OCO3)CCN(C)C2` [HYDROCOTARNINE HYDROBROMIDE], the Papp came to 35 ×10⁻⁶ cm/s.

With `CC(=O)c1c(O)cccc1O` [2-ACETYLRESORCINOL], the Papp was 45 ×10⁻⁶ cm/s.

As to `C=C(C)c1cc2cc(C(C)=O)c(O)cc2o1` [EUPARIN], the apparent permeability (Papp) amounted to 125 ×10⁻⁶ cm/s.

The compound `CC(C)[C@H]1C(=O)N[C@H](CO)Cc2c[nH]c3cccc(c23)N1C` [[…]] yielded a Papp of 47 ×10⁻⁶ cm/s.

Compound `COc1cc2c(cc1OC)OC(C)(C)C=C2` [PRECOCENE II] gave a Papp of 159 ×10⁻⁶ cm/s.

As for `CCC12C=CCN3CC[C@@]4(c5ccc(OC)cc5N(C)[C@H]4[C@@](O)(C(=O)OC)[C@@H]1OC(C)=O)[C@@H]32` (stereo partly drawn) [VINDOLINE], the Papp stood at 92 ×10⁻⁶ cm/s.

Compound `CCOc1ccc(O)cc1` [P-HYDROXYPHENETOLE] showed a Papp of 35 ×10⁻⁶ cm/s.

`COc1cc(OC)c2ccc(=O)oc2c1` [LIMETTIN] displayed an apparent permeability coefficient (Papp) of 105 ×10⁻⁶ cm/s.

The compound `COc1cccc(OC)c1C(=O)O` [2,6-DIMETHOXYBENZOIC ACID] displayed a Papp of 24 ×10⁻⁶ cm/s.

For `COc1ccc(-c2cc(=O)c3c(O)cc(O)c(-c4cc(-c5cc(=O)c6c(O)cc(OC)cc6o5)ccc4OC)c3o2)cc1` [SCIADOPITYSIN], the Papp was determined as 20 ×10⁻⁶ cm/s.

Consider `Cc1ccnc(N)c1` [AMINOPICOLINE], for which the Papp is 13 ×10⁻⁶ cm/s.
